Values joined by “and” are separate entries in the source; they are usually repeats but may differ in a detail not shown here. Identical values can stand only once. Toxic doses and inconclusive results are not listed.
Test system: P388 leukemia ip, CD2F1 mice, survival T/C
Test: NCI In Vivo Anticancer Drug Screen. Data for tumor model P388 Leukemia (intraperitoneal) in CD2F1 (CDF1) mice
Conditions: endpoint: median survival time, higher = longer survival
Summary of the method: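 Mice carrying the transplanted tumor received test compound or vehicle. Survival was recorded in each group, and the value is the treated-group measurement divided by that of the vehicle-treated control group.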

[1] = dose: 6.25 mg/kg/injection, schedule: Q01DX005 (ip), vehicle: saline with Tween-80
[2] = dose: 12.5 mg/kg/injection, schedule: Q01DX005 (ip), vehicle: saline with Tween-80
[3] = dose: 25.0 mg/kg/injection, schedule: Q01DX005 (ip), vehicle: saline with Tween-80

In the case of `CC1=CC(C)(C)N=C2SC(=O)c3cc4c(cc3N12)OCO4`, the T/C (dose: 100.0 mg/kg/injection, schedule: Q04DX002 (ip), vehicle: saline with Tween-80) is reported as 106 % of control, the T/C (dose: 200.0 mg/kg/injection, schedule: Q04DX002 (ip), vehicle: saline with Tween-80) is reported as 98 % of control and the T/C (dose: 400.0 mg/kg/injection, schedule: Q04DX002 (ip), vehicle: saline with Tween-80) is reported as 97 % of control.
For `c1ccc(Cn2nnnc2-c2ccccc2)cc1`, the T/C (dose: 100.0 mg/kg/injection, schedule: Q04DX003 (ip), vehicle: saline with Tween-80) was 100 % of control, the T/C (dose: 200.0 mg/kg/injection, schedule: Q04DX003 (ip), vehicle: saline with Tween-80) was 96 % of control and the T/C (dose: 400.0 mg/kg/injection, schedule: Q04DX003 (ip), vehicle: saline with Tween-80) was 88 % of control.
`c1nc(N2CCOCC2)c2[nH]cnc2n1` was tested, and the T/C (dose: 50.0 mg/kg/injection, schedule: Q01DX005 (ip), vehicle: Klucel (hydroxypropylcellulose) (HPC)) was 99 % of control and 91 % of control, the T/C (dose: 100.0 mg/kg/injection, schedule: Q01DX005 (ip), vehicle: Klucel (hydroxypropylcellulose) (HPC)) was 88 % of control and the T/C (dose: 200.0 mg/kg/injection, schedule: Q01DX005 (ip), vehicle: Klucel (hydroxypropylcellulose) (HPC)) was 91 % of control.
With `O=N[O-].[Co].[NH2-].[NH2-].[NH2-].[NH2-].[NH2-]` the T/C (dose: 12.5 mg/kg/injection, schedule: Q01DX009 (ip), vehicle: saline) was 90 % of control, the T/C (dose: 25.0 mg/kg/injection, schedule: Q01DX009 (ip), vehicle: saline) was 95 % of control and the T/C (dose: 50.0 mg/kg/injection, schedule: Q01DX009 (ip), vehicle: saline) was 95 % of control.
In the case of `CCOc1ccc(-n2c(=O)c(N=Nc3ccccc3OC)c(O)n(-c3ccccc3Cl)c2=S)cc1`, the T/C (dose: 100.0 mg/kg/injection, schedule: Q01DX001 (ip), vehicle: Klucel (hydroxypropylcellulose) (HPC)) is reported as 102 % of control, the T/C (dose: 200.0 mg/kg/injection, schedule: Q01DX001 (ip), vehicle: Klucel (hydroxypropylcellulose) (HPC)) is reported as 101 % of control and the T/C (dose: 400.0 mg/kg/injection, schedule: Q01DX001 (ip), vehicle: Klucel (hydroxypropylcellulose) (HPC)) is reported as 105 % of control.
In the case of `Nc1ncnc2c1nc([Se])n2C1OC(CO)C(O)C1O` (stereo not given), the T/C (dose: 25.0 mg/kg/injection, schedule: Q01DX005 (ip), vehicle: other) is reported as 97 % of control, the T/C (dose: 100.0 mg/kg/injection, schedule: Q01DX005 (ip), vehicle: other) is reported as 97 % of control and the T/C (dose: 200.0 mg/kg/injection, schedule: Q01DX005 (ip), vehicle: other) is reported as 86 % of control. The T/C (dose: 400.0 mg/kg/injection, schedule: Q01DX005 (ip), vehicle: other) was 105 % of control.
`N#Cc1ccc(OCCCCOc2ccc(C#N)cc2)cc1` was tested, and the T/C [1] was 95 % of control, the T/C [2] was 97 % of control and the T/C [3] was 91 % of control.
With `COC(=O)C(=O)c1c(C(=O)OC)nc2nnc(N)n2c1-c1ccc(O)c(OC)c1` the T/C (dose: 60.0 mg/kg/injection, schedule: Q01DX005 (ip), vehicle: saline with Tween-80) was 92 % of control, the T/C (dose: 120.0 mg/kg/injection, schedule: Q01DX005 (ip), vehicle: saline with Tween-80) was 94 % of control and the T/C (dose: 240.0 mg/kg/injection, schedule: Q01DX005 (ip), vehicle: saline with Tween-80) was 94 % of control.
In the case of `NCCCNCCCNc1nc2nc(N)nc(N)c2nc1-c1ccc([N+](=O)[O-])cc1`, the T/C [1] is reported as 99 % of control, the T/C [2] is reported as 101 % of control and the T/C [3] is reported as 105 % of control. For the same compound, the T/C (dose: 50.0 mg/kg/injection, schedule: Q01DX005 (ip), vehicle: saline with Tween-80) was 97 % of control.
In the case of `Nc1ccc(C(=O)c2cccs2)cn1`, the T/C (dose: 50.0 mg/kg/injection, schedule: Q01DX005 (ip), vehicle: distilled water + alcohol) is reported as 98 % of control and the T/C (dose: 100.0 mg/kg/injection, schedule: Q01DX005 (ip), vehicle: distilled water + alcohol) is reported as 104 % of control.
In the case of `NCC1CCCCO1` (stereo not given), the T/C (dose: 50.0 mg/kg/injection, schedule: Q01DX005 (ip), vehicle: saline) is reported as 98 % of control, the T/C (dose: 100.0 mg/kg/injection, schedule: Q01DX005 (ip), vehicle: saline) is reported as 99 % of control and the T/C (dose: 200.0 mg/kg/injection, schedule: Q01DX005 (ip), vehicle: saline) is reported as 91 % of control.
`CCN(CC)CCn1[nH]c2c3ccc(=O)cc3sc3c(NCCN)ccc1c32` was tested, and the T/C (dose: 3.12 mg/kg/injection, schedule: Q01DX005 (ip), vehicle: water) was 122 % of control and 229 % of control and 242 % of control, the T/C (dose: 6.25 mg/kg/injection, schedule: Q01DX005 (ip), vehicle: water) was 184 % of control and 250 % of control and 280 % of control and the T/C (dose: 12.5 mg/kg/injection, schedule: Q01DX005 (ip), vehicle: water) was 166 % of control and 194 % of control and 271 % of control.
For `O=C(O)C12C=CC(CC1)CC2`, the T/C (dose: 60.0 mg/kg/injection, schedule: Q01DX005 (ip), vehicle: Klucel (hydroxypropylcellulose) (HPC)) was 99 % of control, the T/C (dose: 120.0 mg/kg/injection, schedule: Q01DX005 (ip), vehicle: Klucel (hydroxypropylcellulose) (HPC)) was 105 % of control and the T/C (dose: 240.0 mg/kg/injection, schedule: Q01DX005 (ip), vehicle: Klucel (hydroxypropylcellulose) (HPC)) was 100 % of control.
